Measurements: US11478513B2, “Cutibacterium avidum strain, and composition for preventing or treating atopic dermatitis, comprising strain or cultured product thereof” (priority 2018, dated 2022)

Columns and labels:
HaCaT cells = test: Cytotoxicity (MTT) in HaCaT cells; assay type: cell-based, human; settings: experimental group in which rosmarinic acid was added, 48 hours
Procedure: To evaluate the cytotoxicity of fermented filtrates prepared in the Example 3, the following experiment was progressed. HaCaT cells were attached on a 96-well cell culture plate for 24 hours at 5×10^3 cells/well each and then the test group samples were added by concentration to culture it under the condition of 5% CO2 and 37° C. for 48 hours. 48 hours later, the cultured cell medium was removed, and 0.5 mg/ml dimethylthiazol-2-y1)-2-5-diphenyltetrazolium bromide (MTT) formazan solution was treated to cells, and they were reacted for 4 hours, and after the time passage, all the cell medium was removed and the formazan solution was dissolved by DMSO and then the absorbance was measured at 570 nm with SpectraMax M2. Then, the survival rate of the HaCaT cell line was calculated by converting with the equation of O.Dsample/O.Dcontrol×100.

IL-6 = IL-6 RNA expression in HaCaT cells treated with heat-treated C. acnes; assay type: cell-based, human; settings: pre-treated 1 hour, heat-treated C. acnes (100MOI) 4 hours, real-time PCR; FIG. 12
Procedure: (§1) At first, GENSCO1 fermented filtrates were pre-treated for 1 hour to cells in which 2×10^5 of HaCaT human keratinocyte lines were attached in a 6-well plate, respectively, by culturing them in a 37° C. and 5% CO2 incubator for 24 hours. Then, the heat-treated C. acnes (100MOI) was treated and was reacted for 4 hours. Then, after extracting RNA for each sample, the RNA expression for the inflammation response cytokine factors, IL-6 and IL-8 was confirmed by real-time PCR.

IL-8 = IL-8 RNA expression in HaCaT cells treated with heat-treated C. acnes; assay type: cell-based, human; settings: pre-treated 1 hour, heat-treated C. acnes (100MOI) 4 hours, real-time PCR; compared to control group induced to C. acnes; FIG. 11
Procedure: as §1

[1] = tested on: Cutibacterium acnes ATCC 6919; test: Growth inhibition, overlay clear zone test (C. acnes); assay type: cell-based; settings: RCM agar overlay, anaerobic, 37° C., about 72 hours; triclosan 200 mg/ml
Procedure: (§2) The effect of growth inhibition of S. aureus and C. acnes was confirmed by observing formation of a clear zone. […] The experiment was progressed, expecting that S. aureus and C. acnes around Cutibacterium avidum GENSC01 could not grow and they became transparent, if Cutibacterium avidum GENSC01 had the effect of inhibiting the growth of bacteria. The Cutibacterium avidum GENSC01 culture broth was collected with a platinum loop and was anaerobically cultured in a thin RCM agar plate at 37° C. for 72 hours by drawing a line about 2.5 cm. After confirming that Cutibacterium avidum GENSC01 sufficiently grew, S. aureus and C. acnes strains adjusted to 10^4 cfu/ml were inoculated in 10 ml RCM agar at about 45° C. which was not yet solidified, and they were well suspended before the medium was hardened, and they were evenly solidified by pouring them on the agar plate in which Cutibacterium avidum GENSC01 grew. In the solidified agar plate, S. aureus and C. acnes were further cultured anaerobically at 37° C. for about 40 hours and about 72 hours, respectively, to observe the size of the clear zone appearing around Cutibacterium avidum GENSC01. As the negative control group, phosphate-buffered saline (PBS) was used, and as the positive control group, triclosan was used, and S. aureus and C. acnes were treated at an amount of 10 mg/ml and 200 mg/ml, respectively.

[2] = tested on: Staphylococcus aureus KCTC 1621; test: Growth inhibition, overlay clear zone test (S. aureus); assay type: cell-based; settings: RCM agar overlay, anaerobic, 37° C., about 40 hours; triclosan 10 mg/ml
Procedure: as §2

| SMILES | cell survival rate (HaCaT cells) | expression of IL-6 (IL-6) | IL-8 expression (inflammation response) (IL-8) | growth inhibition of C. acnes (clear zone) [1] | growth inhibition of S. aureus (clear zone) [2] |
| --- | --- | --- | --- | --- | --- |
| O=C(/C=C/c1ccc(O)c(O)c1)O[C@H](Cc1ccc(O)c(O)c1)C(=O)O [rosmarinic acid] | could be increased | reduced at a similar level | inflammation response was reduced | – | – |
| Oc1cc(Cl)ccc1Oc1ccc(Cl)cc1Cl [triclosan] | – | – | – | the clear zone was observed, but it had much smaller area than GENSC01 treatment | the clear zone was observed, but it had much smaller area than GENSC01 treatment |
